For orientation: IC50 means the concentration needed to halve the response being measured.

These results are taken from US10888547B2, “Amorphous and a crystalline form of genz 112638 hemitartrate as inhibitor of glucosylceramide synthase” (Genzyme Corporation, priority 2009, dated 2021).

Series [1] deals with T1, Non-lysosomal glucosylceramidase (GBA2) (Homo sapiens, UniProt Q9HCG7).
T1 construct: were assayed in intact human cells using C6-NBD-glucosylceramide as substrate; endogenous in cells
T1 sequence (Q9HCG7 1-927): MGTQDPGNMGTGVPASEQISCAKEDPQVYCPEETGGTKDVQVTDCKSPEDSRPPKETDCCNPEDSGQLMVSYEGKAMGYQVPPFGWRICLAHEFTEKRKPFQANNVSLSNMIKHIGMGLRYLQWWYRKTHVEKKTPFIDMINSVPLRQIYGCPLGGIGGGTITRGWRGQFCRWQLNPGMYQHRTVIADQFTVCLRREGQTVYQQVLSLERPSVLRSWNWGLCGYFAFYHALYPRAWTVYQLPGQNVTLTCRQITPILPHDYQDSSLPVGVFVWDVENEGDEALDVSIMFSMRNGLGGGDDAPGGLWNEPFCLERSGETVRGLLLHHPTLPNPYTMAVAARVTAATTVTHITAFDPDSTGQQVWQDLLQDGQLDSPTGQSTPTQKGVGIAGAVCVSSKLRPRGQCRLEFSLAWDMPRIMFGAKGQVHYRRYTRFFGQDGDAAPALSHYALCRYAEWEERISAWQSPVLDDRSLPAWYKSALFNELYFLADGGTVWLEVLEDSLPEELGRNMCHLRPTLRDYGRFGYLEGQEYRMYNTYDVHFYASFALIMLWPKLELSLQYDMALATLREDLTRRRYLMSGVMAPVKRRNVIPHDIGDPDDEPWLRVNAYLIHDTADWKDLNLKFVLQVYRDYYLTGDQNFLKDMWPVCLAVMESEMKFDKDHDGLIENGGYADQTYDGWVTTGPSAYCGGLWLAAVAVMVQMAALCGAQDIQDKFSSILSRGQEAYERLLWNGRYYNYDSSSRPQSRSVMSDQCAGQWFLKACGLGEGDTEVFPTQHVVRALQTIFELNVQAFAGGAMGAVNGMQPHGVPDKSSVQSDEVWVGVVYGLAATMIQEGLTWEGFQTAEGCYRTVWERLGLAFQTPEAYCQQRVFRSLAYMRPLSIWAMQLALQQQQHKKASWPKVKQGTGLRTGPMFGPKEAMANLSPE
Put plainly: Non-lysosomal glucosylceramidase in intact human cells, C6-NBD-glucosylceramide substrate. The class given is cell-based. To be noted: read-out: Enzyme specificities, IC50: Non-lysosomal glucosylceramidase (GBA2). Here is the method:
(§1) Non-lysosomal glucosylceramidase and lysosomal glucocerebrosidase were assayed in intact human cells using C6-NBD-glucosylceramide as substrate (see H. S. Overkleeft, et al. J. Biol. Chem. 273 (1998) 26522-26527, the entire teachings of which are incorporated herein by reference). Conduritol β epoxide (a specific inhibitor of lysosomal glucocerebrosidase) was used to differentiate lysosomal versus the non-lysosomal activity. Glucocerebrosidase activity was also measured by fluorescence-activated cell sorting (FACS). […] Cells were immediately chilled on ice and the fluorescence quantitated is above.

Series [2] addresses T2, Lysosomal glucocerebrosidase (GBA1) (Homo sapiens, UniProt P04062).
T2 construct: endogenous in cells; K562 cells for the FACS assay
T2 sequence (P04062 40-536): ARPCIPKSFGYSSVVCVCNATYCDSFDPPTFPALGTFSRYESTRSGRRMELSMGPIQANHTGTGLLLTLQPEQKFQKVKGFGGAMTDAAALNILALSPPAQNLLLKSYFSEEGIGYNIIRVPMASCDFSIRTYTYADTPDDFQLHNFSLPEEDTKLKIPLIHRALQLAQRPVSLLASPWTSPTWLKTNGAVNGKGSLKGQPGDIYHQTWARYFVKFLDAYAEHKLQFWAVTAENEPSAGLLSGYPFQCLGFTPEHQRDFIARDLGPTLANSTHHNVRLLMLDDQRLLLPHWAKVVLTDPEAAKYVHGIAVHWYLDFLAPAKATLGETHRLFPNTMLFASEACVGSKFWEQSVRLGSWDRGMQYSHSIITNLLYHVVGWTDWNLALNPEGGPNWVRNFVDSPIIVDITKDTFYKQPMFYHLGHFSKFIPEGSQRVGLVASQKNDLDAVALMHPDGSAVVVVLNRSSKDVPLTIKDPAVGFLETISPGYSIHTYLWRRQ
In words: Lysosomal glucocerebrosidase in intact human cells / FACS in K562 cells. The class given is cell-based. The method, then:
as §1

Series [3] is described as follows: Hygroscopicity of salts and free base. Format: physicochemical.
The test system of another series is D409V/null mice. In words: Oral gavage efficacy study in Gaucher D409V/null mice. The class given is in vivo, mouse.
[4] abbreviates: mouse, in vivo, po, 150 mg/kg/day.

For `CCCCCCCC(=O)N[C@H](CN1CCCC1)[C@H](O)c1ccc2c(c1)OCCO2` [Formula (I) Hemitartrate], the IC50 in series [1] was 1.6 mM. In addition, in series [2] (at the effective dose), the “inhibition of glucocerebrosidase activity” value is “no measurable inhibition”. Moreover, the IC50 in series [2] (read-out: Enzyme specificities, IC50: Lysosomal glucocerebrosidase (GBA1)) is greater than 2.5 mM. Further, the “inhibition of lysosomal glucocerebrosidase” value in series [2] (up to the highest concentration of 2500 μM) is “no inhibition”. The “Hygroscopicity (40° C./75% RH)” value in series [3] (40° C./75% RH) is “None”. In addition, in series [3] (salt screen, Example 1, listed as hemitartrate (1 salt: 2 Formula I)), the “hygroscopicity of the solid salt” value is reported as “non-hygroscopic”. Further, the gastro-intestinal issues entry in the series with D409V/null mice (effective dose of 150 mg/kg/day) is listed as “no observable gastro-intestinal issues”. Besides, the “glucosylceramide levels versus age-matched vehicle-treated controls” value in the series on D409V/null mice (mouse, in vivo) is “dose-dependent reduction”. In addition, in the series on D409V/null mice (setting [4]), the “body weight versus untreated mice” value is reported as “no significant deviation”; the “effects on well-being or feeding habits” value is recorded as “no notable effects”; the “frequency of Gaucher cells in the liver versus untreated mice” value is reported as “significantly lower”; the “glucosylceramide levels in liver, % lower than in vehicle-treated mice” value was determined as 60%. Further, in the series with D409V/null mice (setting [4]), the “glucosylceramide levels in liver, lung and spleen versus start of the study” value is listed as “had not increased”; the “glucosylceramide levels in lung, % lower than in vehicle-treated mice” value is 50%; the “glucosylceramide levels in spleen, % lower than in vehicle-treated mice” value worked out at 40%; the “glucosylceramide levels in the liver, % of those in the controls” value worked out at 60%. Also, in the series with D409V/null mice (setting [4]), the “glucosylceramide levels in the lung, % of those in the controls” value is listed as 40% and the “glucosylceramide levels in the spleen, % of those in the controls” value was 75%.
